Test results: US12366579B2, “Sulfur-heterocycle exchange chemistry and uses thereof” (University of Virginia Patent Foundation, priority 2019, dated 2025)

How the values were obtained:
[1] = tested on: human cell proteomes (HEK293T, A549, DM93, H82, and Jurkat cells); test: LC-MS chemical proteomics of probe-modified tyrosine sites across 5 cell proteomes; assay type: binding; conditions: HHS-465 and -475 together; 100 μM, 1 hr, 25° C.
Experimental: Proteomes were diluted to 2.3 mg/mL in PBS and sample aliquots (432 μL) were treated with sulfonyl-triazole or -fluoride probes at the indicated concentrations (5 μL, 100× stock in DMSO), mixed gently and incubated for 1 h at room temperature. Probe-modified proteomes were subjected to CuAAC conjugation to desthiobiotin-PEG3-azide (10 μL of 10 mM stock in DMSO; final concentration of 200 μM) using TCEP (10 μL of fresh 50 mM stock in water; 1 mM final concentration), TBTA ligand (33 μL of a 1.7 mM 4:1 t-butanol/DMSO stock, 100 μM final concentration), and CuSO4 (10 μL of 50 mM stock, 1 mM final concentration). Samples were mixed by vortexing and then incubated for 1 h at room temperature. Excess reagents were removed by chloroform-methanol extraction as previously described^51. Protein pellets were re-suspended in 500 μL of 6M urea/25 mM ammonium bicarbonate followed by DTT reduction and IAA alkylation as previously described^5. Excess reagents were removed by chloroform/methanol extraction as described above, and the protein pellet was re-suspended in 500 μL of 25 mM ammonium bicarbonate and then digested to peptides using trypsin/Lys-C (7.5 μg in 15 μL of ammonium bicarbonate, sequencing grade from Promega, Madison, Wisconsin, United States of America) was added to the mixture and incubated for 3 hrs at 37° C. […]

HEK293T, Jurkat cells = test: Live cell chemical proteomic profiling with SuTEx probes; assay type: cell-based, human; conditions: 100 μM, 2 hr, 37° C.; membrane and soluble fractions; both probes
Experimental: Cells grown to ˜90% confluency in 10 cm plates were treated with DMSO vehicle or sulfonyl-triazole probe (10 μL of 1000×DMSO stock) in serum-free media for the indicated concentrations and times at 37° C. with 5% CO2. After treatment, cells were washed with cold PBS twice before harvesting and preparation for gel-based chemical proteomic evaluation as described above. For LC-MS studies, protein concentrations were normalized to 2.3 mg/mL and 432 μL (for 1 mg final protein amount) were used for sample preparation as detailed below.
Proteomes were diluted to 2.3 mg/mL in PBS and sample aliquots (432 μL) were treated with sulfonyl-triazole or -fluoride probes at the indicated concentrations (5 μL, 100× stock in DMSO), mixed gently and incubated for 1 h at room temperature. Probe-modified proteomes were subjected to CuAAC conjugation to desthiobiotin-PEG3-azide (10 μL of 10 mM stock in DMSO; final concentration of 200 μM) using TCEP (10 μL of fresh 50 mM stock in water; 1 mM final concentration), TBTA ligand (33 μL of a 1.7 mM 4:1 t-butanol/DMSO stock, 100 μM final concentration), and CuSO4 (10 μL of 50 mM stock, 1 mM final concentration). Samples were mixed by vortexing and then incubated for 1 h at room temperature. Excess reagents were removed by chloroform-methanol extraction as previously described^51. […]

[2] = tested on: HEK293T soluble proteomes; test: LC-MS chemical proteomics of probe-modified sites in cell proteomes; assay type: binding, human; conditions: for tyrosine specificity, Y/K ratio of modified sites: LC-MS chemical proteomics, FIG. 4A
Experimental: Proteomes were diluted to 2.3 mg/mL in PBS and sample aliquots (432 μL) were treated with sulfonyl-triazole or -fluoride probes at the indicated concentrations (5 μL, 100× stock in DMSO), mixed gently and incubated for 1 h at room temperature. Probe-modified proteomes were subjected to CuAAC conjugation to desthiobiotin-PEG3-azide (10 μL of 10 mM stock in DMSO; final concentration of 200 μM) using TCEP (10 μL of fresh 50 mM stock in water; 1 mM final concentration), TBTA ligand (33 μL of a 1.7 mM 4:1 t-butanol/DMSO stock, 100 μM final concentration), and CuSO4 (10 μL of 50 mM stock, 1 mM final concentration). Samples were mixed by vortexing and then incubated for 1 h at room temperature. Excess reagents were removed by chloroform-methanol extraction as previously described^51. Protein pellets were re-suspended in 500 μL of 6M urea/25 mM ammonium bicarbonate followed by DTT reduction and IAA alkylation as previously described^5. Excess reagents were removed by chloroform/methanol extraction as described above, and the protein pellet was re-suspended in 500 μL of 25 mM ammonium bicarbonate and then digested to peptides using trypsin/Lys-C (7.5 μg in 15 μL of ammonium bicarbonate, sequencing grade from Promega, Madison, Wisconsin, United States of America) was added to the mixture and incubated for 3 hrs at 37° C. Probe-modified peptides were enriched by avidin affinity chromatography, eluted, and prepared for LC-MS analysis as previously described^51.
A top 10 data-dependent acquisition MS method was used.
Sulfonyl-probe modifications of tyrosine, lysine, and other amino acids were included as a variable (common) modification of +635.27374 Da. […] A Byonic score of 300 was applied for a more inclusive initial evaluation of the search results and thereby consider more possible probe-modified sites. MS1 and MS2 spectra corresponding to the highest-scoring tyrosine- and lysine (internal or non-C terminal)-modified sequences (˜50-100 peptides) were manually verified. […] Distinct peptides containing probe-modified amino acid residues (termed sites) were determined by identifying all unique razor protein and site combinations across all of the proteomes tested.
To compare amino acid residues modified by sulfonyl probes, protein and peptide identifications were accomplished as described above with variable (common) modification of +635.27374 Da on the following amino acid residues: cysteine, aspartic acid, glutamic acid, histidine, lysine, methionine, asparagine, glutamine, arginine, serine, threonine, tryptophan, and tyrosine. For these amino acid comparisons, carbamidomethylation (+57.021464 Da) of cysteines was searched as a variable/common modification to allow for the potential of probe modification on cysteines. Comparisons of probe-modified sites across all probes and cell lines tested were performed using the R package ggplot2 (online at tidyverse.org). Venn diagrams for comparisons were generated using the VennDiagram R package^52.
Proteomes were digested with trypsin protease and desthiobiotin-modified peptides enriched by avidin affinity chromatography, released, and analyzed by high-resolution liquid chromatography-mass spectrometry (LC-MS). Probe-modified peptide-spectrum matches (PSMs) that met a quality control confidence criteria of ≥300 Byonic score^31 and ≤5 ppm mass accuracy were selected for further manual evaluation.

[3] = HPLC assay, p-cresol reactivity against a sulfonyl probe mixture; assay type: physicochemical; conditions: TMG 2.2 equivalents, 0° C.
Experimental: The following reagents were prepared and kept at 0° C. prior to use: 0.1 M solution of caffeine in acetonitrile (ACN), 1.0 M solution of n-butylamine, p-cresol, tetramethylguanidine (TMG), acetic acid in ACN, and 10 mM solution of the probes in a mixture of DMF-ACN (v/v=10:90) are made.
(i) p-Cresol reactivity against a probe mixture: A solution of p-cresol (16.5 μmol, 3.3 eq) was premixed with 1.1, 2.2, or 3.3 eq of TMG. To initiate the reaction, the p-cresol/TMG solution was added to a sulfonyl probe mixture of HHS-475/HHS-482/HHS-SF-1 (500 μL, 5 μmol, 1.0 eq each) and the reaction was kept at 0° C. The reaction progress was monitored by taking out a 50.0 μL aliquot of the reaction mixture at various time points followed by addition of a 10 μL quenching solution of acetic acid (0.5 M final, 5.0 μmol) and the internal caffeine standard (0.05 M final, 0.5 μmol). Sample (1.0 μL) was injected and analyzed by reverse-phase HPLC on a Shimadzu 1100 Series spectrometer (Shimadzu, Kyoto, Japan) with UV detection at 254 nm. Reaction progress was evaluated by monitoring consumption of sulfonyl probes because all probes generate a shared p-cresol and n-butylamine product. Chromatographic separation was performed using a Phenomenex Kinetex C18 column (2.6 μm, 50 mm×4.6 mm, Phemonenex, Torrance, California, United States of America). […]

SMILES	tyrosine sites identified in aggregate across 5 cell proteomes [1]	distinct tyrosine sites measured in live cell studies, in total per cell line (HEK293T, Jurkat cells)	tyrosine specificity, Y/K ratio of modified sites [2]	time to consumption of probe by p-cresol [3] [min]	fold reduction in total number of modified sites compared with HHS-465 and HHS-475 [2] [fold]
C#CCNC(=O)c1ccc(S(=O)(=O)n2nccn2)cc1 [HHS-465, 4-((2H-1,2,3-Triazol-2-yl)sulfonyl)-N-(prop-2-yn-1-yl)benzamide]	~8,000 sites	~3,500 sites	2.5		
C#CCNC(=O)c1ccc(S(=O)(=O)F)cc1 [HHS-SF-1, 4-(Prop-2-yn-1-ylcarbamoyl)benzenesulfonyl fluoride, reference compound]			2.3	> 90	~4
